In brackets after ≈: the same amount, converted by molar mass.
Tests used:
[1] = system: γ-glutamyl transferase (GGT); type: in vitro ADME, equine; details: horse, 100 μgmL^−1, pH 9
Experimental: Each compound and GSH (100 μgmL^−1, 0.0315 molL^−1) was added to each reaction vessel containing phosphate buffer solution (800 μL, pH 9.0). The reaction vessels were incubated at 37 °C with shaking for the entire duration of the experiment. Reaction was initiated by the addition of GGT enzyme solution (100 μL, 10 UmL^−1). […] The degradation rate of the novel compounds analysed by HPLC were compared with that of GSH. […] A GGT degradation less than 50% was considered resistance to GTT activity.

[2] = cited from earlier work

Structure (SMILES) | % Degradation by GGT [1] | water solubility [2]
CN(C(=O)CC[C@H](N)C(=O)O)[C@@H](CS)C(=O)NCC(=O)O [Compound 1.70] | 11.7% | 
N[C@@H](CCC(=O)N[C@@H](CS)C(=O)NCC(=O)O)C(=O)O [GSH, Glutathione] |  | 292.5 mg/mL (≈ 952 mM)
